Paper PMC10761937, “Functional engineering of human iPSC‐derived parasympathetic neurons enhances responsiveness to gastrointestinal hormones” (FEBS Open Bio, 2023)
Where no end group is shown, it is not given here.

Columns and labels:
[1] = system: CCKAR; test: Ca^2+ imaging, CCKAR‐HEK293T cells; format: cell-based, human; settings: Fluo‐8 AM, Ringer's solution pH 7.4, ΔF/F 0, n = 10, Dunnett's test vs. 0 nM
Procedure: (§1) HEK293T cells (Lenti‐X 293T Cell line; TaKaRa, Shiga, Japan) were maintained in Dulbecco's Modified Eagle Medium (DMEM; Fujifilm Wako Pure Chemical Industries, Osaka, Japan) supplemented with 10% fetal bovine serum (Biowest, Nuaillé, France), 1% non‐essential amino acids (NEAA) (Fujifilm Wako Pure Chemical Industries), and 1% penicillin–streptomycin (P/S) (Fujifilm Wako Pure Chemical Industries) and cultured in non‐coated culture plates at 37 °C and in an incubator with 5% CO2. The culture medium was replaced every 2–3 days. At 80–90% confluence, the cell colonies were digested into single cells using TrypLE Express (Thermo Fisher Scientific). The resulting cells were used for lentiviral transfection and agonist experiments.
(§2) Figure S1 presents the protocol used for this experiment. Lentiviral vectors were acquired from VectorBuilder (VectorBuilder Japan, Inc., Kanagawa, Japan). […]
(§3) Transduced HEK293T and neurons were incubated with 10 μM Fluo‐8 AM, a calcium indicator (AAT Bioquest, Pleasanton, CA, USA), in each culture medium (Cell lines and cell culture and Induction to parasympathetic neurons sections) at 37 °C for 30 min. […] Fluorescence (excitation: 490 nm, emission: 525 nm) was detected using a confocal spinning disk confocal laser scanning unit (CSU‐W1; Yokogawa Electric, Tokyo, Japan) and an LED light (X‐Cite 120LED; Opto Science, Tokyo, Japan). […]

[2] = system: rat nodal ganglion cells; settings: various concentrations; ref [31], [32], [33], [34]; cited from earlier work
Source text: Previous reports indicate that rat nodal ganglion cells respond to various concentrations of hormones, including CCK, GLP1, PYY, and 5‐HT [31, 32, 33, 34]. […] However, it is noteworthy that the overexpression of these receptors in our model may not reconstruct natural expres ...

[3] = system: HTR3A‐neurons; test: Ca^2+ imaging, directly transduced HTR3A‐neurons; format: cell-based, human; settings: 100 μM 5‐HT; HTR3A‐neurons (transduced during differentiation) day 35; Fluo‐8 AM; n = 20; Student's t‐test vs. 0 μM
Procedure: (§4) Before initiating differentiation, the iPSCs (1–2 × 10^5 cells·cm^−2; Cell lines and cell culture section) were transferred to 6‐well plates (Corning, Inc., Corning, NY, USA) coated with 2‐methacryloyloxyethyl phosphorylcholine (MPC) polymer (Lipidure CM5206E; NOF, Tokyo, Japan). The cells were maintained in mTeSR1 cGMP medium containing 10 μM Y‐27632 (Fujifilm Wako Pure Chemical Industries) for 2 or 3 days to form embryoid body (EBs) in a rotary shaker at 95 r.p.m. (OS‐762RC; Optime, Tokyo, Japan). Subsequently, iPSCs were differentiated into neural crest cells (NCCs), as previously reported. Briefly, NCCs were induced from Ebs using knockout serum replacement (KSR) medium and N2 medium with graded addition of nerve growth factors and signaling factors. KSR medium was composed of DMEM‐F12 (Fujifilm Wako Pure Chemical Industries), 20% KSR (Thermo Fisher Scientific), 1% NEAA, 1% monothioglycerol (Fujifilm Wako Pure Chemical Industries), and 1% P/S. N2 medium consisted of DMEM‐F12, 1% N2 supplement (Fujifilm Wako Pure Chemical Industries), 1% NEAA, and 1% P/S. When EB formation was considered day 0 of induction, the medium was changed at days 2, 5, 7, 9, and 12. […]

[4] = system: HTR3A; test: Ca^2+ imaging, HTR3A‐HEK293T cells; format: cell-based, human; settings: Fluo‐8 AM, Ringer's solution pH 7.4, ΔF/F 0, n = 10
Procedure: as §1, §2, §3

[5] = system: CCKAR‐neurons; test: Ca^2+ imaging, CCKAR‐neurons (iPSC‐derived); format: cell-based, human; settings: 100 nM CCK‐33; CCKAR‐neurons day 35; Fluo‐8 AM; ΔF stim/F 0; n = 20; Student's t‐test vs. 0 nM
Procedure: as §4

[6] = system: CCKAR‐neurons; test: MEA recording of neuronal firing, CCKAR‐neurons; format: cell-based, human; settings: 100 nM vs. 0 nM CCK‐33: P = 0.018; day 27; 0 nM n = 128 electrodes, 100 nM n = 57 electrodes; 5 min before and after ligand addition
Procedure: as §4

[7] = system: GLP2R‐neurons; test: Ca^2+ imaging, directly transduced GLP2R‐neurons; format: cell-based, human; settings: 100 nM GLP2; GLP2R‐neurons (transduced during differentiation) day 35; Fluo‐8 AM; n = 20
Procedure: as §4

[8] = system: GLP2R; test: Ca^2+ imaging, GLP2R‐HEK293T cells; format: cell-based, human; settings: Fluo‐8 AM, Ringer's solution pH 7.4, ΔF/F 0, n = 20
Procedure: as §1, §2, §3

## CCK‐8: CCK‐Octapeptide (26–33) (CCK‐8) (4100‐v; Peptide Institute, Inc.) (DYMGWMDF; ends and bridges not checked; UniProt P06307 96-103, looked up)
[1]
  Concentration giving response (change in intracellular Ca^2+ concentration): > 10 nM

## NCCc1c[nH]c2ccc(O)cc12 [5‐HT, 5‐hydroxytryptamine]
[2]
  Response of rat nodal ganglion cells: respond
[3]
  Intracellular Ca^2+ concentration: increased intracellular Ca^2+ concentration
[4]
  Concentration giving response (intracellular Ca^2+ concentration): > 10 µM

## CCK‐33: CCK‐33 (4201‐s; Peptide Institute, Inc.) (KAPSGRMSIVKNLQNLDPSHRISDRDYMGWMDF; ends and bridges not checked; UniProt P06307 71-103, looked up)
[5]
  Intracellular Ca^2+ concentration: significantly increased the intracellular Ca^2+ concentration
[6]
  Neuronal firing frequency change rate: significantly increased the neuronal firing frequency change rate
[1]
  Concentration giving response (change in intracellular Ca^2+ concentration): > 100 nM

## GLP2: GLP2 (4276‐v; Peptide Institute, Inc.) (HADGSFSDEMNTILDNLAARDFINWLIQTKITD; Glucagon-like peptide 2; UniProt P01275 146-178, looked up)
[7]
  Percentage change in fluorescence intensity: 3%
  Response in Ca^2+ imaging: responded slightly
[8]
  Concentration giving response (Ca^2+ imaging): > 100 nM
